Experiments:
β-glucuronidase = conditions: cited from earlier work
β-glucuronidase enzyme = molecular target: T1, β-glucuronidase enzyme (Bos taurus, UniProt A3KMY8); experiment: β-Glucuronidase inhibitory activity (p-nitrophenyl-β-D-glucuronide, 405 nm); type: biochemical; conditions: Conc. 0.05 mM
T1 sequence (A3KMY8 24-652): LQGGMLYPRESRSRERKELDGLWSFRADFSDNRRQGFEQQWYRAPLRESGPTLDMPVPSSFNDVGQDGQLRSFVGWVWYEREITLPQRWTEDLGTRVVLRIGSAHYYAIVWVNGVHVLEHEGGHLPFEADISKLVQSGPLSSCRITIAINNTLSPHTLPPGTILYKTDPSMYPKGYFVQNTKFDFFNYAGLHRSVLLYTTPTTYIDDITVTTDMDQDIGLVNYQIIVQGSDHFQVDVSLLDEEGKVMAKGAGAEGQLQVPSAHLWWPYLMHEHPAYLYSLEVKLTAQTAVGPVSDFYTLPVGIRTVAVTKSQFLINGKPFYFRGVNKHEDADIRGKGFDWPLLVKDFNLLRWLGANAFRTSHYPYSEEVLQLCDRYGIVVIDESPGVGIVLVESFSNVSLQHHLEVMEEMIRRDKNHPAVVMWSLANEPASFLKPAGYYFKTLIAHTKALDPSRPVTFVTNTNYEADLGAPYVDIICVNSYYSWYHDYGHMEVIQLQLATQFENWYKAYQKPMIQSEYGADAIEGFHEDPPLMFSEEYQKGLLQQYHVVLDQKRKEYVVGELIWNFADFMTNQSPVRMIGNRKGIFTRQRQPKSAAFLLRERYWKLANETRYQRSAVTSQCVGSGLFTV
Experimental: β-Glucuronidase inhibitory activity by hydrazide Schiff base ligand (H-AHMB) and its metal (II) complexes was investigated using standard procedure. […] According to the procedure 185 µL of 0.1 M acetate buffer, 5 µL compound to be tested and 10 µL of enzyme solution were mixed and incubated at 37 °C for 30 min. SpectraMax plus 384, Molecular Devices, USA was used to read on a multiplate reader at 405 nm after the addition of 0.4 mM p-nitrophenyl-β-D-glucuronide (50 µL). All experiments were performed in triplicate.

DPPH radical scavenging [1] = conditions: Conc. 0.05 mM
DPPH radical scavenging [2] = conditions: for IC50: DPPH scavenging
Experimental: The synthetic Schiff base ligand and its metal complexes were tested for their ability to scavenge DPPH radicals using the methodology described by Soare, Dinis, Cunha, and Almeida in 1997[64]. Initially, 1 mL of 0.2 mM DPPH dissolved in methanol was combined with 0.1 mL of each sample at 250, 500, 750, and 1000 µg/mL concentrations. For 20 min, the reaction mixture was kept at 28 °C and kept in the dark. Methanol served as the control, which had all the components but no sample. A UV/Vis spectrophotometer was used to detect the absorbance at 517 nm in order to assess the DPPH radical scavenging activity. For comparison, the DPPH radical scavenging capacity of ascorbic acid was also determined. %Inhibitioneffect=Ac-As/Ac×100
Ac = Absorbance by the control, As = Absorbance by the sample[37].

Molecule | inhibition of the β-glucuronidase enzyme (β-glucuronidase) | % inhibition (β-glucuronidase enzyme) [%] | % Radical scavenging activity (DPPH radical scavenging [1]) [%] | IC50 (DPPH radical scavenging [2]) [µM] | antioxidant potential against DPPH free radicals (in words) (DPPH radical scavenging [2])
CC(=O)O[C@@H]1C(=O)O[C@H]2[C@@H]1OC(=O)[C@@H]2OC(C)=O [2,5-di-O-acetyl-D-glucaro-1,4:6,3-Dilactone] | marked inhibition | – | – | – | –
O=C[C@H](O)[C@H]1OC(=O)[C@@H](O)[C@H]1O [D-glucurono-γ-lactone] | marked inhibition | – | – | – | –
O=C1OC(C(O)C(=O)O)C(O)C1O [D-saccharic acid-1,4-lactone, reference compound] | – | 89.4 | – | – | –
O=C(O)c1cc(O)c(O)c(O)c1 [Gallic acid, reference compound] | – | – | 93.13 | 63 ± 0.43 | –
COc1cc(C=NNC(=O)c2ccccc2N)ccc1O [H-AHMB, N′-[(4-hydroxy-3-methoxyphenyl)methylidene] 2-aminobenzohydrazide] | – | – | 22.97 | – | inactive
Cobalt adduct with N′-[(4-hydroxy-3-methoxyphenyl)methylidene] 2-aminobenzohydrazide [Co-AHMB] | – | 78.8 | 88.46 | 98.2 ± 1.78 | –
Copper adduct with N′-[(4-hydroxy-3-methoxyphenyl)methylidene] 2-aminobenzohydrazide [Cu-AHMB] | – | 73.3 | 84.29 | 183 ± 6.6 | –
Nickel adduct with N′-[(4-hydroxy-3-methoxyphenyl)methylidene] 2-aminobenzohydrazide [Ni-AHMB] | – | 96.0 | 52.40 | 467 ± 2.9 | –
Zinc adduct with N′-[(4-hydroxy-3-methoxyphenyl)methylidene] 2-aminobenzohydrazide [Zn-AHMB] | – | 98.3 | 49.16 | – | –

Source: publication PMC10766943, “Synthesis, characterization, Hirshfeld surface analysis, antioxidant and selective β-glucuronidase inhibitory studies of transition metal complexes of hydrazide based Schiff base ligand” (Scientific Reports, 2024)
